Assay results: article PMC10882719 (Frontiers in Neuroscience, 2024)
Read-outs that look alike come from different tables or passages of the source.

How the values were obtained:
Assay type in all cases: cell-based
168 GPCRs [1] = biological target: T1, 168 GPCRs (Homo sapiens, UniProt Q96LB2)
T1 construct: host or cells: PathHunter cell lines

168 GPCRs [2] = biological target: T2, 168 GPCRs (Homo sapiens, UniProt P48546); settings: GIPR
T2 construct: host or cells: PathHunter cell lines
T2 sequence (P48546 22-466): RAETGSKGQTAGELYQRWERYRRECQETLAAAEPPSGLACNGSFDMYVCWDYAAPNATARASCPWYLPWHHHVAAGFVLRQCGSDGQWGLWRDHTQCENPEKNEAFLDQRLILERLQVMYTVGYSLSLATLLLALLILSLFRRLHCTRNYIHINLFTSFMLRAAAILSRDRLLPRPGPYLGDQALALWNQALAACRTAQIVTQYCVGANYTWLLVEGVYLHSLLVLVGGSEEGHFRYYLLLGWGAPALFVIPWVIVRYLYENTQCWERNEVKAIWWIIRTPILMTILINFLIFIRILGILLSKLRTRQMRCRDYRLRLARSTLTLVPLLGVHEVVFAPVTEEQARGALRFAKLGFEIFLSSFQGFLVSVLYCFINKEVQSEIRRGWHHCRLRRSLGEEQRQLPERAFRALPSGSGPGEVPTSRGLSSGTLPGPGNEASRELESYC

168 GPCRs [3] = test system: 168 GPCRs
168 GPCRs [4] = biological target: T3, 168 GPCRs (Homo sapiens, UniProt P30411)
T3 construct: host or cells: PathHunter cell lines
T3 sequence (P30411 1-391): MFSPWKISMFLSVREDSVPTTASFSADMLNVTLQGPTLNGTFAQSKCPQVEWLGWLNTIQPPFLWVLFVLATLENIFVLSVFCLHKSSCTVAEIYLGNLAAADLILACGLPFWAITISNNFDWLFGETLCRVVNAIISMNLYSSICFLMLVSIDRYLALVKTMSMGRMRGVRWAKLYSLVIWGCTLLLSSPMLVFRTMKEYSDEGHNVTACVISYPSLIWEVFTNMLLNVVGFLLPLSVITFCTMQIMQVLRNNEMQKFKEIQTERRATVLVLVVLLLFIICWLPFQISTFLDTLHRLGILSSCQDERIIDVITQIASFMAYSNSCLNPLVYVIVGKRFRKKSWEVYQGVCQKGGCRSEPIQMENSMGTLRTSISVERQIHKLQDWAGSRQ

168 GPCRs [5] = biological target: T4, 168 GPCRs (Homo sapiens, UniProt P34981); settings: TRHR
T4 construct: host or cells: PathHunter cell lines
T4 sequence (P34981 1-398): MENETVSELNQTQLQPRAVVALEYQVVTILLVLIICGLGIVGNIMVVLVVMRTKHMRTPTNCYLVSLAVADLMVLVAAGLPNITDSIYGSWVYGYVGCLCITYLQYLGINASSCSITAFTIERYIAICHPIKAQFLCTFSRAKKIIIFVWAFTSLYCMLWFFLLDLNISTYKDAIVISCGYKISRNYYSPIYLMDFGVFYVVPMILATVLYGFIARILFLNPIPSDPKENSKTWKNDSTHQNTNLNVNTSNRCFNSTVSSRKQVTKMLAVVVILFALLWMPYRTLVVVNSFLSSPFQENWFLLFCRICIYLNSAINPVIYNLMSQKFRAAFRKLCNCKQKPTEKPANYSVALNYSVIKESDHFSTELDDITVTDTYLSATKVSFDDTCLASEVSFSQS

168 GPCRs [6] = biological target: T5, 168 GPCRs (Homo sapiens, UniProt Q9UKP6); settings: UTR2
T5 construct: host or cells: PathHunter cell lines
T5 sequence (Q9UKP6 1-389): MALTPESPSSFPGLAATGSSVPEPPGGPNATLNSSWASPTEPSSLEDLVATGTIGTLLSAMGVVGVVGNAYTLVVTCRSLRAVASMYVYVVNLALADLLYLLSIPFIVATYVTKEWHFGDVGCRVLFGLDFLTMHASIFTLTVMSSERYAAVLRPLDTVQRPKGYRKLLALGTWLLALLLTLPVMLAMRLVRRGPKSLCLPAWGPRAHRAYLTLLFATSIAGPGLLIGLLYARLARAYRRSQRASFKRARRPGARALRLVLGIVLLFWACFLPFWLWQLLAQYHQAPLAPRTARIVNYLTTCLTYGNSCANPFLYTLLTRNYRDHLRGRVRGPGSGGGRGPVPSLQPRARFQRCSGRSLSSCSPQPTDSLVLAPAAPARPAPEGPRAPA

168 GPCRs [7] = biological target: T6, 168 GPCRs (Homo sapiens, UniProt P51685)
T6 construct: host or cells: PathHunter cell lines
T6 sequence (P51685 whole entry): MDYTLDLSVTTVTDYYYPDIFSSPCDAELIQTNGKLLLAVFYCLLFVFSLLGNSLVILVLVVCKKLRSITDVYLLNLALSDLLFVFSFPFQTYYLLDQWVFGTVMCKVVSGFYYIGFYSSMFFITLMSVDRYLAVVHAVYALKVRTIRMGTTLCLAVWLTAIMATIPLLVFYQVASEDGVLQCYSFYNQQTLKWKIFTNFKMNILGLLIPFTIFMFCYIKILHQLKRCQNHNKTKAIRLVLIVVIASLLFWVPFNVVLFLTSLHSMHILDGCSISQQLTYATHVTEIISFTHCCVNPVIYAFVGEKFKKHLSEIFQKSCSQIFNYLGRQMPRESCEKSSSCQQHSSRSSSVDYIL

T1 sequence (Q96LB2 whole entry): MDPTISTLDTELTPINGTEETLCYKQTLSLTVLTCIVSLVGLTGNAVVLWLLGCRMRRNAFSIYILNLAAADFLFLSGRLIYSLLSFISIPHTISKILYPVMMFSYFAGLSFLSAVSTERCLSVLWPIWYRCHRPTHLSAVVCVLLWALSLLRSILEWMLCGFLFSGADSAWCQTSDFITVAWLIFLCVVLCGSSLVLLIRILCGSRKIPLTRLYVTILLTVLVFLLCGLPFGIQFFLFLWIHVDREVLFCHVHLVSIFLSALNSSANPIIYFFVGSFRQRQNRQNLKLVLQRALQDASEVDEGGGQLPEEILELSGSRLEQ

CNC(C)Cc1ccc2c(c1)OCO2 (stereo not drawn) [MDMA, 3,4-Methylenedioxy methamphetamine, reference compound]
% Agonist Activity (168 GPCRs [1]; MRGPRX1, 1 uM): 0.2%
% Antagonist Activity (168 GPCRs [1]; MRGPRX1, 1 uM): 5.1%
% Agonist Activity (168 GPCRs [1]; MRGPRX1, 10 uM): -0.4%
% Antagonist Activity (168 GPCRs [1]; MRGPRX1, 10 uM): 7.6%
% Agonist Activity (168 GPCRs [2]; 1 uM): -2.6%
% Antagonist Activity (168 GPCRs [2]; 1 uM): -0.1%
% Agonist Activity (168 GPCRs [2]; 10 uM): -3.3%
% Antagonist Activity (168 GPCRs [2]; 10 uM): -0.1%
% Agonist Activity (168 GPCRs [3]; DRD2S, 1 uM): 1.6%
% Antagonist Activity (168 GPCRs [3]; DRD2S, 1 uM): 5.8%
% Agonist Activity (168 GPCRs [3]; DRD2S, 10 uM): 1.9%
% Antagonist Activity (168 GPCRs [3]; DRD2S, 10 uM): 14.7%
% Agonist Activity (168 GPCRs [3]; NPSR1B, Conc 1 uM): -3.8%
% Antagonist Activity (168 GPCRs [3]; NPSR1B, Conc 1 uM): 4.3%
% Agonist Activity (168 GPCRs [3]; NPSR1B, Conc 10 uM): -5.1%
% Antagonist Activity (168 GPCRs [3]; NPSR1B, Conc 10 uM): 5%
% Agonist Activity (168 GPCRs [4]; BDKRB2, 1 uM): 0.3%
% Antagonist Activity (168 GPCRs [4]; BDKRB2, 1 uM): -6.6%
% Agonist Activity (168 GPCRs [4]; BDKRB2, 10 uM): 0.1%
% Antagonist Activity (168 GPCRs [4]; BDKRB2, 10 uM): -5.6%
% Agonist Activity (168 GPCRs [5]; Conc 1 uM): -0.4%
% Antagonist Activity (168 GPCRs [5]; Conc 1 uM): 16.2%
% Agonist Activity (168 GPCRs [5]; Conc 10 uM): -0.1%
% Antagonist Activity (168 GPCRs [5]; Conc 10 uM): 9.9%
% Agonist Activity (168 GPCRs [6]; Conc 1 uM): -1.1%
% Antagonist Activity (168 GPCRs [6]; Conc 1 uM): 4.4%
% Agonist Activity (168 GPCRs [6]; Conc 10 uM): -0.1%
% Antagonist Activity (168 GPCRs [6]; Conc 10 uM): 14.3%
% Agonist Activity (168 GPCRs [7]; CCR8, 1 uM): -0.2%
% Antagonist Activity (168 GPCRs [7]; CCR8, 1 uM): -3.1%
% Agonist Activity (168 GPCRs [7]; CCR8, 10 uM): -0.2%
% Antagonist Activity (168 GPCRs [7]; CCR8, 10 uM): 4.3%

CNC(C)C(=O)c1ccc2c(c1)OCO2 (stereo not drawn) [methylone]
% Agonist Activity (168 GPCRs [1]; MRGPRX1, 1 uM): -1.7%
% Antagonist Activity (168 GPCRs [1]; MRGPRX1, 1 uM): -6.5%
% Agonist Activity (168 GPCRs [1]; MRGPRX1, 10 uM): -1.5%
% Antagonist Activity (168 GPCRs [1]; MRGPRX1, 10 uM): -10.2%
% Agonist Activity (168 GPCRs [2]; 1 uM): -2.9%
% Antagonist Activity (168 GPCRs [2]; 1 uM): -1%
% Agonist Activity (168 GPCRs [2]; 10 uM): -5.8%
% Antagonist Activity (168 GPCRs [2]; 10 uM): -5.1%
Agonist activity at any of 168 GPCRs (168 GPCRs [3]; 1 or 10 μM, threshold 30% activity): no significant agonist activity
Antagonist activity at any GPCR (168 GPCRs [3]; 1 or 10 μM, threshold 50% inhibition): no significant antagonist activity
% Agonist Activity (168 GPCRs [3]; DRD2S, 1 uM): 0%
% Antagonist Activity (168 GPCRs [3]; DRD2S, 1 uM): 3.6%
% Agonist Activity (168 GPCRs [3]; DRD2S, 10 uM): 0.6%
% Antagonist Activity (168 GPCRs [3]; DRD2S, 10 uM): -11.6%
% Agonist Activity (168 GPCRs [3]; NPSR1B, Conc 1 uM): -1.3%
% Antagonist Activity (168 GPCRs [3]; NPSR1B, Conc 1 uM): -10.6%
% Agonist Activity (168 GPCRs [3]; NPSR1B, Conc 10 uM): 4.8%
% Antagonist Activity (168 GPCRs [3]; NPSR1B, Conc 10 uM): -7.6%
% Agonist Activity (168 GPCRs [4]; BDKRB2, 1 uM): -3.6%
% Antagonist Activity (168 GPCRs [4]; BDKRB2, 1 uM): 7.3%
% Agonist Activity (168 GPCRs [4]; BDKRB2, 10 uM): -2.9%
% Antagonist Activity (168 GPCRs [4]; BDKRB2, 10 uM): -2.6%
% Agonist Activity (168 GPCRs [5]; Conc 1 uM): -2%
% Antagonist Activity (168 GPCRs [5]; Conc 1 uM): -7.2%
% Agonist Activity (168 GPCRs [5]; Conc 10 uM): -2.2%
% Antagonist Activity (168 GPCRs [5]; Conc 10 uM): 2.8%
% Agonist Activity (168 GPCRs [6]; Conc 1 uM): 0.6%
% Antagonist Activity (168 GPCRs [6]; Conc 1 uM): -2.1%
% Agonist Activity (168 GPCRs [6]; Conc 10 uM): 0%
% Antagonist Activity (168 GPCRs [6]; Conc 10 uM): 4.2%
% Agonist Activity (168 GPCRs [7]; CCR8, 1 uM): -0.2%
% Antagonist Activity (168 GPCRs [7]; CCR8, 1 uM): 4.7%
% Agonist Activity (168 GPCRs [7]; CCR8, 10 uM): -0.6%
% Antagonist Activity (168 GPCRs [7]; CCR8, 10 uM): -0.3%
